Experimental findings from patent US20230250129A1, “NEUROACTIVE STEROIDS AND COMPOSITIONS THEREOF” (Sage Therapeutics, Inc., priority 2020, published 2023) are described below.

This assay concerns the target [35S]-TBPS binding, rat brain cortical membranes (GABAA receptor). As to the kind of experiment: Steroid inhibition of [35S]-TBPS binding. Particulars: 3 nM [35S]-TBPS, in the presence of 5 mM GABA, 90 min at room temp. As for the experimental part: Steroid Inhibition of TBPS Binding
[^35S]-t-Butylbicyclophosphorothionate (TBPS) binding assays using rat brain cortical membranes in the presence of 5 mM GABA has been described (Gee et al, J. Pharmacol. Exp. Ther. 1987, 241, 346-353; Hawkinson et al, Mol. Pharmacol. 1994, 46, 977-985; Lewin, A. H et al., Mol. Pharmacol. 1989, 35, 189-194).
Briefly, cortices are rapidly removed following decapitation of carbon dioxide-anesthetized Sprague-Dawley rats (200-250 g). The cortices are homogenized in 10 volumes of ice-cold 0.32 M sucrose using a glass/teflon homogenizer and centrifuged at 1500×g for 10 min at 4° C. The resultant supernatants are centrifuged at 10,000×g for 20 min at 4° C. to obtain the P2 pellets. The P2 pellets are resuspended in 200 mM NaCl/50 mM Na—K phosphate pH 7.4 buffer and centrifuged at 10,000×g for 10 min at 4° C. This washing procedure is repeated twice and the pellets are resuspended in 10 volumes of buffer. Aliquots ([…]) of the membrane suspensions are incubated with 3 nM [^35S]-TBPS and […] aliquots of test drug dissolved in dimethyl sulfoxide (DMSO) (final 0.5%) in the presence of 5 mM GABA. The incubation is brought to a final volume of 1.0 mL with buffer. Nonspecific binding is determined in the presence of […] and ranged from 15 to 25%. Following a 90 min incubation at room temp, the assays are terminated by filtration through glass fiber filters (Schleicher and Schuell No. 32) using a cell harvester (Brandel) and rinsed three times with ice-cold buffer. Filter bound radioactivity is measured by liquid scintillation spectrometry. Non-linear curve fitting of the overall data for each drug averaged for each concentration is done using Prism (GraphPad). […] The concentration of test compound producing 50% inhibition (IC50) of specific binding and the maximal extent of inhibition (Imax) are determined for the individual experiments with the same model used for the overall data and then the means±SEM.s of the individual experiments are calculated.
Various compounds are or can be screened to determine their potential as modulators of [^35S]-TBPS binding in vitro. These assays are or can be performed in accordance with the above
In the case of `COC[C@@]1(O)CC[C@H]2[C@H](CC[C@@H]3[C@@H]2CC[C@]2(C)[C@@H](C(=O)Nc4cnc(C#N)nc4)CC[C@@H]32)C1` [Compound 89, (3R,5R,8R,9R,10S,13S,14S,17S)—N-(2-cyanopyrimidin-5-yl)-3-hydroxy-3-(methoxymethyl)-13-methylhexadecahydro-1H-cyclopenta[a]phenanthrene-17-carboxamide], the IC50 was under 100 nM.

`CCC[C@@]1(O)CC[C@H]2[C@H](CC[C@@H]3[C@@H]2CC[C@]2(C)[C@@H](C(=O)Nc4ncc(C#N)cn4)CC[C@@H]32)C1` [Compound 90, (3R,5R,8R,9R,10S,13S,14S,17S)—N-(5-cyanopyrimidin-2-yl)-3-hydroxy-13-methyl-3-propylhexadecahydro-1H-cyclopenta[a]phenanthrene-17-carboxamide]: the IC50 was under 100 nM.

Turning to `COC[C@@]1(O)CC[C@H]2[C@H](CC[C@@H]3[C@@H]2CC[C@]2(C)[C@@H](C(=O)Nc4ccnc(C#N)n4)CC[C@@H]32)C1` [Compound 91, (3R,5R,8R,9R,10S,13S,14S,17S)—N-(2-cyanopyrimidin-4-yl)-3-hydroxy-3-(methoxymethyl)-13-methylhexadecahydro-1H-cyclopenta[a]phenanthrene-17-carboxamide], the concentration for half-maximal inhibition (IC50) is under 100 nM. In the case of `COC[C@@]1(O)CC[C@H]2[C@H](CC[C@@H]3[C@@H]2CC[C@]2(C)[C@@H](C(=O)Nc4nccc(C#N)n4)CC[C@@H]32)C1` [Compound 92, (3R,5R,8R,9R,10S,13S,14S,17S)—N-(4-cyanopyrimidin-2-yl)-3-hydroxy-3-(methoxymethyl)-13-methylhexadecahydro-1H-cyclopenta[a]phenanthrene-17-carboxamide] it was 100 to 1000 nM; in that of `CCC[C@@]1(O)CC[C@H]2[C@H](CC[C@@H]3[C@@H]2CC[C@]2(C)[C@@H](C(=O)Nc4nccc(C#N)n4)CC[C@@H]32)C1` [Compound 93, (3R,5R,8R,9R,10S,13S,14S,17S)—N-(4-cyanopyrimidin-2-yl)-3-hydroxy-13-methyl-3-propylhexadecahydro-1H-cyclopenta[a]phenanthrene-17-carboxamide], under 100 nM; in that of `COC[C@@]1(O)CC[C@H]2[C@H](CC[C@@H]3[C@@H]2CC[C@]2(C)[C@@H](C(=O)Nc4cc(C#N)ncn4)CC[C@@H]32)C1` [Compound 94, (3R,5R,8R,9R,10S,13S,14S,17S)—N-(6-cyanopyrimidin-4-yl)-3-hydroxy-3-(methoxymethyl)-13-methylhexadecahydro-1H-cyclopenta[a]phenanthrene-17-carboxamide], under 100 nM. In the case of `COC[C@@]1(O)CC[C@H]2[C@H](CC[C@@H]3[C@@H]2CC[C@]2(C)[C@@H](C(=O)Nc4cncc(C#N)n4)CC[C@@H]32)C1` [Compound 95, (3R,5R,8R,9R,10S,13S,14S,17S)—N-(6-cyanopyrazin-2-yl)-3-hydroxy-3-(methoxymethyl)-13-methylhexadecahydro-1H-cyclopenta[a]phenanthrene-17-carboxamide] it was under 100 nM. In the case of `C[C@@]1(O)CC[C@H]2[C@H](CC[C@@H]3[C@@H]2CC[C@]2(C)[C@@H](C(=O)Nc4ccccc4)CCC[C@@H]32)C1` [Compound 98, (1S,4aS,4bR,6aR,8R,10aS,10bR,12aS)-8-hydroxy-8,12a-dimethyl-N-phenyloctadecahydrochrysene-1-carboxamide] it was under 100 nM; in that of `CC[C@]12CC[C@@](C)(O)C[C@H]1CC[C@H]1[C@@H]3CCC[C@H](C(=O)Nc4ccccc4)[C@@]3(C)CC[C@@H]12` [Compound 99, (1S,4aS,4bS,6aR,8R,10aS,10bS,12aS)-10a-ethyl-8-hydroxy-8,12a-dimethyl-N-phenyloctadecahydrochrysene-1-carboxamide], under 100 nM. With `CCOC[C@@]1(O)CC[C@@]2(CC)[C@H](CC[C@H]3[C@@H]4CCC[C@H](C(=O)Nc5cc(C)n(C)n5)[C@@]4(C)CC[C@@H]32)C1` [Compound 100, (4aS,4bS,6aR,8R,10aS,10bS,12aS)—N-(1,5-dimethyl-1H-pyrazol-3-yl)-8-(ethoxymethyl)-0a-ethyl-8-hydroxy-12a-methyloctadecahydrochrysene-1-carboxamide], the IC50 was under 100 nM. On to `CCOC[C@@]1(O)CC[C@@]2(CC)[C@H](CC[C@H]3[C@@H]4CCC[C@H](C(=O)Nc5cc(C)nn5C)[C@@]4(C)CC[C@@H]32)C1` [Compound 101, (1S,4aS,4bS,6aR,8R,10aS,10bS,12aS)—N-(1,3-dimethyl-1H-pyrazol-5-yl)-8-(ethoxymethyl)-10a-ethyl-8-hydroxy-12a-methyloctadecahydrochrysene-1-carboxamide], for which the IC50 is under 100 nM.
